Results on one compound are retold here after patent US20240277631A1, “SMALL MOLECULE DRUG (ELP-004) TO PREVENT BONE LESIONS CAUSED BY MULTIPLE MYELOMA” (West Virginia University Board of Governors on behalf of …, priority 2023, published 2024).

Series [1] deals with Murine BMSMCs. Put plainly: RANKL-induced osteoclastogenesis (TRAP, multinucleation, marker mRNA). It is filed as cell-based. Conditions: RANKL (100 ng/ml). The method, then: Murine BMSMCs were grown for up to 21 days in media supplemented with 50 ng/ml of m-CSF and 100 ng/mL RANKL. Each experiment was repeated a minimum of three times. Cells were fixed and stained for Tartrate Resistant Acid Phosphatase (TRAP) activity at days 1, 7, 14, and 21. The number of trap positive osteoclast-like cells (out of 100 cells) were counted for each time point, along with TRAP intensity, as shown in schematic A. In schematic B, the number of nuclei for each cell counted and the average number of nuclei per cell for 100 cells is shown at each time point.

Another series can be described thus: water solubility. It is filed as physicochemical. The source says:
Those persons of ordinary skill in the art will understand that ELP-004 may be solubilized in ethanol and then diluted in sterile saline. These methods include wherein the route of administration may be, for example but not limited to, the intravenous, intramuscular, or subcutaneous routes, or via the oral route of administration.

For series [2], the system named is Murine BMSMCs. Put plainly: TNFα-induced osteoclast fusion (TRAP, multinucleation, marker mRNA). It is filed as cell-based. Conditions: RANKL/TNFα. The method, then:
(A_C) Murine BMSMCs were grown for up to 21 days in media supplemented with 50 ng/ml m-CSF, […] RANKL and 2 ng/ml TNFα. Each experiment was repeated a minimum of three times. Cells were fixed and stained for Tartrate Resistant Acid Phosphatase (TRAP)_activity at days 1, 7, 14 and 21. In schematic A, the number of TRAP positive osteoclast-like cells (out of 100 cells) were counted for each time point; TRAP intensity was also calculated. In schematic B, at each time point the number of nuclei for each cell was counted and the average number of nuclei per cell for 100 cells is shown. […] The expression patterns of osteoclast markers was unaffected by ELP-004, indicating selective inhibition of specific features of osteoclastogenesis.

Another series concerns Jurkat cells. It is filed as cell-based. Conditions: human. On the set-up: dose or concentration left out as unconfirmed. The method, then:
wherein each X is chlorine, Y is a methyl group, and R is an ethyl group. N-MeDCPA is synthesized as described in U.S. Pat. No. 10,682,320, which is incorporated by reference herein. ELP-004 (N-MeDCPA) precludes metabolizing to two toxic metabolites, N—OH-dichloroaniline and 6-OH-dichloroaniline. In vitro assays for toxicity caused by ELP-004 using Jurkat cells show 50% toxicity at […] and <2% toxicity at […].
ELP-004 (i.e. N-MeDCPA) was specifically developed to preclude metabolizing to two toxic metabolites, N—OH-dichloroaniline and 6-OH-dichloroaniline. In vitro assays for toxicity caused by ELP-004 using Jurkat cells show 50% toxicity at […] and <2% toxicity at […].

Another series deals with rats. Put plainly: 1x escalating oral toxicity in rats (IITRI). It is filed as in vivo, rat.
Series [3] can be described thus: ability to cross the blood brain barrier. The text has this: ELP-004 has been evaluated for its ability to cross the blood brain barrier. […] Other medications, such as but not limited to bupropion, are known to cause problems due to dopamine transporter binding.
Series [4] is described as follows: pharmacokinetics in mice, i.v., p.o., s.c. The series is classed as in vivo, female C57B16 mice. How it is done: ELP-004 was reconstituted in 20% hydroxypropyl-beta-cyclodextrin (HPbCD) and administered to female C57B16 mice (3/timepoint/route of administration) in the fed state. Following i.v. (2 mg/kg) […] from whole blood at 5, 15, and 30 min and at 1, 2, 4, 7, and 24 h. ELP-004 concentration was measured by LC-MS/MS. The data was fit to a two-compartment model and slopes for the a and B elimination were determined.
Depicted in table 1 is pharmacokinetic data of ELP-004 administered via i.v, p.o., and s.c. ELP-004 was reconstituted in 20% hydroxypropyl-beta-cyclodextrin (HPbCD) and administered to female C57B16 mice (3/timepoint/route of administration) in the fed state. Following i.v. (2 mg/kg), s.c. (2 mg/kg), or p.o. (10 mg/kg) administration, plasma was isolated from whole blood at 5, 15, and 30 min and at 1, 2, 4, 7, and 24 h. Plasma from p.o. was not isolated at 5 min. ELP-004 concentration was measured by LC-MS/MS (see below). The limit of quantification was 10 ng/ml and samples below that were not used in the analyses. PK parameters were calculated using Phoenix WinNonlin (Certara, NJ, USA).

A further series deals with CYP2D6 (Homo sapiens, UniProt P10635). Put plainly: stability with recombinant CYP2D6. It is filed as in vitro ADME. How it is done:
Depicted in table 2 is cytochrome P450 phenotyping and inhibition by ELP-004. The stability of ELP-004 was tested in the presence of recombinant enzymes CYP1A2, CYP2B6, CYP2C8, CYP2C9, CYP2C19, CYP2D6, and CYP3A4. ELP-004 (1 μM) was incubated with recombinant enzymes and NADPH. The amount of ELP-004 remaining at each timepoint was analyzed by LC-MS/MS. Incubations in control recombinant enzymes were also performed to assess non-enzymatic mediated stability. The intrinsic clearance of ELP-004 was determined. […] A decrease in the formation of the metabolite compared to vehicle control is used to calculate an IC50 value. Metabolite peak area ratio response as a percentage of vehicle control is plotted against the test compound concentration.

For series [5], the system named is human myeloma cells (U266 cells). Put plainly: bone loss in the animal model of multiple myeloma. It is filed as in vivo. The following applies: mice engrafted with human U266 myeloma cells, 60 mg/kg ELP-004 at 72h intervals (summary statement). How it is done:
Shown are cross-sections of distal femur micro-computer tomographic images from mice treated with 60 mg/kg ELP-004 or vehicle control at 72h intervals after the engraftment of human 2×10^6 myeloma cells (U266 cells). Confirmation of engraftment was verified by measuring serum human IgE levels.

Read-outs that look alike come from different tables or passages of the source.

CYP2D6, sequence (P10635 whole entry): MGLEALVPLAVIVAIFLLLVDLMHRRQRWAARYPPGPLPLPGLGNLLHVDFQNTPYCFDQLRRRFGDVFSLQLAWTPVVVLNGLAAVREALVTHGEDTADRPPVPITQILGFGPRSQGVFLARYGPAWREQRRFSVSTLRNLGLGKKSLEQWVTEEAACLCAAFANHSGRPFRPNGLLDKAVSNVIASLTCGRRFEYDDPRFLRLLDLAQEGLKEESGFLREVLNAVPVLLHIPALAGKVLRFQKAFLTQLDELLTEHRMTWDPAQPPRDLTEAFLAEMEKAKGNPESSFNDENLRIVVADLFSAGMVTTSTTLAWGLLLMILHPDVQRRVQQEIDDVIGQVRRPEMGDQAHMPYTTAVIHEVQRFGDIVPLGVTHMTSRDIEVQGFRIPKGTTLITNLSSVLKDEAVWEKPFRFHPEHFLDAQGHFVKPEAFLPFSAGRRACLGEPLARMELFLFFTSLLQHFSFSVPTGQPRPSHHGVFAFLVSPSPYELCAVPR

Turning to `CCC(=O)N(C)c1ccc(Cl)c(Cl)c1` [ELP-004, N-(3,4-dichlorophenyl)-N-methylpropanamide], the results for the TRAP activity result in the series on Murine BMSMCs [1] and in the series with Murine BMSMCs [2] were “no significant effect” and “completed abrogated”, respectively. In addition, the multinucleation entry in the series on Murine BMSMCs [1] is listed as “no significant effect”; in the series on Murine BMSMCs [2], “severely attenuated”. In the series on Murine BMSMCs [1] (RT-PCR days 7 and 14), the “expression of osteoclast markers” value is on record as “no significant effect”. For the same compound, the water solubility result in the series “water solubility” is on record as “not water soluble”. Also, the “expression patterns of osteoclast markers” value in the series with Murine BMSMCs [2] is “unaffected”. The values for the toxicity in the series on Jurkat cells (200) and with Jurkat cells (800) were under 2% and 50%, respectively. Moreover, in the series on rats, the “oral LD50” value is recorded as over 2.5 g/kg body weight. Besides, the “crossing of the blood brain barrier” value in series [3] was “does not cross the blood brain barrier”. For the same compound, the “time until essentially eliminated” value in series [4] (administered orally) is at most 4 h. This compound also registered a C0 in series [4] (female, C57B16, mouse, plasma, iv, i.v. 2 mg/kg) of 1220 ng/mL. Moreover, the microsomal CLint at 1 μM on CYP2D6 (human, recombinant CYP2D6, intrinsic clearance, read-out: Recombinant CYP CLINT) is under 0.154 µL/min/mg. Besides, the “metabolism by recombinant enzyme” value on CYP2D6 (recombinant CYP2D6) is reported as “not metabolized”. Further, on CYP2D6 (recombinant CYP2D6, 1 μM, NADPH), the “ELP-004 t1/2” value is recorded as over 180 min. In [5], the “development of bone lesions” value was “strongly suppressed”.
